# Experiments:
# [1] = tested on: recombinant human CFTR carrying the premature stop codon (PTC) mutation G542X; experiment: CFTR-PTC mutant translation readthrough, Nanoluc tagged CFTR luminescence (G542X cell line); type: cell-based; details: in combination with G418, G542X cell line; for CFTR G542X ACTIVITY Fold 10 μM G-418: fold over 10 μM G-418; for EC50: 16HBE cells
# How it was run: (§1)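 Readthrough is the 48 h compound-induced luminescence increase scaled to that of maximal G418 (125-250 μM). Compounds run from 50 μM final in 2-fold steps, ±10 μM G418, on 16HBE lines carrying Nanoluc-tagged CFTR G542X (extracellular loop 4 tag) or R1162X (C-terminal tag), with 3 μM VX-809 present.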
# [2] = tested on: recombinant human CFTR carrying the premature stop codon (PTC) mutation R1162X; experiment: CFTR-PTC mutant translation readthrough, Nanoluc tagged CFTR luminescence (R1162X cell line); type: cell-based; details: for CFTR R1162X ACTIVITY Fold 10 μM G-418: fold over 10 μM G-418, in combination with G418; for EC50: in combination with G418, 16HBE cells, read-out: CFTR R1162X ACTIVITY EC50
# How it was run: as §1
SMILES,EC50 [1] [nM],EC50 [2] [nM],CFTR G542X ACTIVITY Fold 10 μM G-418 [1],CFTR R1162X ACTIVITY Fold 10 μM G-418 [2]
Cc1cccc(C(F)(F)F)c1COc1ccc(-n2cc(CO)nn2)cc1 [[1-[4-[[2-methyl-6-(trifluoromethyl)phenyl]methoxy]phenyl]triazol-4-yl]methanol],1000 to 10000,1000 to 10000,A′ (A′ = ≥10X),A′ (A′ = ≥10X)
"OCc1cn(-c2ccc(CCc3c(Cl)cccc3Cl)cn2)cn1 [[1-[5-[2-(2,6-dichlorophenyl)ethyl]-2-pyridyl]imidazol-4-yl]methanol]",1000 to 10000,> 10000,B′ (B′ = ≥5X to <10X),′
"NCC1CCCN(c2ncc(OCc3c(Cl)cccc3Cl)cn2)C1 (stereo not drawn) [[1-[5-[(2,6-dichlorophenyl)methoxy]pyrimidin-2-yl]-3-piperidyl]methanamine]",< 1000,< 1000,A′ (A′ = ≥10X),A′ (A′ = ≥10X)
"OCC1(F)CCN(c2ncc(OCc3c(Cl)cccc3Cl)cn2)CC1 [[1-[5-[(2,6-dichlorophenyl)methoxy]pyrimidin-2-yl]-4-fluoro-4-piperidyl]methanol]",< 1000,< 1000,A′ (A′ = ≥10X),A′ (A′ = ≥10X)
"OCc1cn(-c2ncc(OCc3c(Cl)cccc3Cl)cn2)cn1 [[1-[5-[(2,6-dichlorophenyl)methoxy]pyrimidin-2-yl]imidazol-4-yl]methanol]",< 1000,1000 to 10000,A′ (A′ = ≥10X),A′ (A′ = ≥10X)
"OCc1ccn(-c2ncc(OCc3c(Cl)cccc3Cl)cn2)n1 [[1-[5-[(2,6-dichlorophenyl)methoxy]pyrimidin-2-yl]pyrazol-3-yl]methanol]",< 1000,1000 to 10000,A′ (A′ = ≥10X),A′ (A′ = ≥10X)
"OCc1cn(-c2ncc(OCc3c(Cl)cccc3Cl)cn2)nn1 [[1-[5-[(2,6-dichlorophenyl)methoxy]pyrimidin-2-yl]triazol-4-yl]methanol]",1000 to 10000,1000 to 10000,A′ (A′ = ≥10X),A′ (A′ = ≥10X)
"Cc1cccc(C)c1COc1ccc(-n2ccc(CO)n2)nc1 [[1-[5-[(2,6-dimethylphenyl)methoxy]-2-pyridyl]pyrazol-3-yl]methanol]",1000 to 10000,1000 to 10000,A′ (A′ = ≥10X),A′ (A′ = ≥10X)
"OCc1cnn(-c2ncc(OCc3c(Cl)cccc3Cl)cn2)n1 [[2-[5-[(2,6-dichlorophenyl)methoxy]pyrimidin-2-yl]triazol-4-yl]methanol]",1000 to 10000,1000 to 10000,A′ (A′ = ≥10X),A′ (A′ = ≥10X)
"OCc1cc(-c2ccc(OCc3c(Cl)cccc3Cl)cc2)no1 [[3-[4-[(2,6-dichlorophenyl)methoxy]phenyl]isoxazol-5-yl]methanol]",1000 to 10000,1000 to 10000,A′ (A′ = ≥10X),A′ (A′ = ≥10X)
"OCc1nc(-c2ccc(OCc3c(Cl)cccc3Cl)cn2)no1 [[3-[5-[(2,6-dichlorophenyl)methoxy]-2-pyridyl]-1,2,4-oxadiazol-5-yl]methanol]",1000 to 10000,1000 to 10000,A′ (A′ = ≥10X),A′ (A′ = ≥10X)
"OCc1cc(-c2ncc(OCc3c(Cl)cccc3Cl)cn2)no1 [[3-[5-[(2,6-dichlorophenyl)methoxy]pyrimidin-2-yl]isoxazol-5-yl]methanol]",< 1000,1000 to 10000,A′ (A′ = ≥10X),A′ (A′ = ≥10X)
"OCc1nc(-c2ccc(OCc3c(Cl)cccc3Cl)cc2)co1 [[4-[4-[(2,6-dichlorophenyl)methoxy]phenyl]oxazol-2-yl]methanol]",1000 to 10000,1000 to 10000,A′ (A′ = ≥10X),A′ (A′ = ≥10X)
CCc1cccc(C(F)(F)F)c1COc1ccc(N2CCOC(CO)C2)cc1 (stereo not drawn) [[4-[4-[[2-ethyl-6-(trifluoromethyl)phenyl]methoxy]phenyl]morpholin-2-yl]methanol],< 1000,< 1000,A′ (A′ = ≥10X),A′ (A′ = ≥10X)
"OCc1nc(-c2ncc(OCc3c(Cl)cccc3Cl)cn2)co1 [[4-[5-[(2,6-dichlorophenyl)methoxy]pyrimidin-2-yl]oxazol-2-yl]methanol]",1000 to 10000,1000 to 10000,A′ (A′ = ≥10X),A′ (A′ = ≥10X)
Cc1cccc(C(F)(F)F)c1COc1cnc(N2CCS(=O)(=O)C(CO)C2)nc1 (stereo not drawn) [[4-[5-[[2-methyl-6-(trifluoromethyl)phenyl]methoxy]pyrimidin],1000 to 10000,1000 to 10000,A′ (A′ = ≥10X),A′ (A′ = ≥10X)
"OCc1nnc(-c2ccc(OCc3c(Cl)cccc3Cl)cc2)o1 [[5-[4-[(2,6-dichlorophenyl)methoxy]phenyl]-1,3,4-oxadiazol-2-yl]methanol]",< 1000,< 1000,A′ (A′ = ≥10X),A′ (A′ = ≥10X)
"OCc1n[nH]c(-c2ccc(OCc3c(Cl)cccc3Cl)cn2)n1 [[5-[5-[(2,6-dichlorophenyl)methoxy]-2-pyridyl]-1H-1,2,4-triazol-3-yl]methanol]",1000 to 10000,1000 to 10000,B′ (B′ = ≥5X to <10X),B′ (B′ = ≥5X to <10X)

# Continued, in another order:
EC50 [1] [nM],EC50 [2] [nM],SMILES,CFTR G542X ACTIVITY Fold 10 μM G-418 [1],CFTR R1162X ACTIVITY Fold 10 μM G-418 [2]
1000 to 10000,> 10000,"OCc1cn(-c2ccc(OCc3c(Cl)cccc3Cl)cn2)cn1 [[1-[5-[(2,6-dichlorophenyl)methoxy]-2-pyridyl]imidazol-4-yl]methanol]",B′ (B′ = ≥5X to <10X),A′ (A′ = ≥10X)
1000 to 10000,1000 to 10000,"NCc1cn(-c2ccc(OCc3c(Cl)cccc3Cl)cn2)nn1 [[1-[5-[(2,6-dichlorophenyl)methoxy]-2-pyridyl]triazol-4-yl]methanamine]",A′ (A′ = ≥10X),A′ (A′ = ≥10X)
< 1000,< 1000,"OCc1cn(-c2ccc(OCc3c(Cl)cccc3Cl)cn2)nn1 [[1-[5-[(2,6-dichlorophenyl)methoxy]-2-pyridyl]triazol-4-yl]methanol]",A′ (A′ = ≥10X),A′ (A′ = ≥10X)
1000 to 10000,1000 to 10000,"OCC1CCCN(c2ncc(OCc3c(Cl)cccc3Cl)cn2)C1 (stereo not drawn) [[1-[5-[(2,6-dichlorophenyl)methoxy]pyrimidin-2-yl]-3-piperidyl]methanol]",A′ (A′ = ≥10X),A′ (A′ = ≥10X)
< 1000,1000 to 10000,"OCc1cc(-c2ccc(OCc3c(Cl)cccc3Cl)cn2)no1 [[3-[5-[(2,6-dichlorophenyl)methoxy]-2-pyridyl]isoxazol-5-yl]methanol]",A′ (A′ = ≥10X),A′ (A′ = ≥10X)
1000 to 10000,1000 to 10000,"OCC1CN(c2ccc(OCc3c(Cl)cccc3Cl)cc2)CCO1 (stereo not drawn) [[4-[4-[(2,6-dichlorophenyl)methoxy]phenyl]morpholin-2-yl]methanol]",A′ (A′ = ≥10X),A′ (A′ = ≥10X)
1000 to 10000,1000 to 10000,"OCC1CN(c2ccc(OCc3c(Cl)cccc3Cl)cn2)CCO1 (stereo not drawn) [[4-[5-[(2,6-dichlorophenyl)methoxy]-2-pyridyl]morpholin-2-yl]methanol]",A′ (A′ = ≥10X),A′ (A′ = ≥10X)
< 1000,1000 to 10000,"NCC1CN(c2ncc(OCc3c(Cl)cccc3Cl)cn2)CCO1 (stereo not drawn) [[4-[5-[(2,6-dichlorophenyl)methoxy]pyrimidin-2-yl]morpholin-2-yl]methanamine]",A′ (A′ = ≥10X),A′ (A′ = ≥10X)
< 1000,1000 to 10000,"OCC1CN(c2ncc(OCc3c(Cl)cccc3Cl)cn2)CCO1 (stereo not drawn) [[4-[5-[(2,6-dichlorophenyl)methoxy]pyrimidin-2-yl]morpholin-2-yl]methanol]",A′ (A′ = ≥10X),A′ (A′ = ≥10X)
1000 to 10000,1000 to 10000,"NC(=O)NCC1CN(c2ncc(OCc3c(Cl)cccc3Cl)cn2)CCO1 (stereo not drawn) [[4-[5-[(2,6-dichlorophenyl)methoxy]pyrimidin-2-yl]morpholin-2-yl]methylurea]",A′ (A′ = ≥10X),B′ (B′ = ≥5X to <10X)
1000 to 10000,1000 to 10000,"OCC1CN(c2ncc(OCc3c(Cl)cccc3Cl)cn2)CCN1 (stereo not drawn) [[4-[5-[(2,6-dichlorophenyl)methoxy]pyrimidin-2-yl]piperazin-2-yl]methanol]",A′ (A′ = ≥10X),A′ (A′ = ≥10X)
1000 to 10000,1000 to 10000,"OC[C@H]1CN(c2ncc(OCc3c(Cl)cccc3Cl)cn2)CCO1 [[(2R)-4-[5-[(2,6-dichlorophenyl)methoxy]pyrimidin-2-yl]morpholin-2-yl]methanol]",A′ (A′ = ≥10X),A′ (A′ = ≥10X)

# Source: US20250228865A1, “COMPOUNDS FOR ENHANCING READ THROUGH OF GENES CONTAINING PREMATURE TERMINATION CODONS AND METHODS FOR MAKING AND USING THE SAME” (Sanofi US Services Inc., priority 2022, published 2025)
